Test results from the NIST ThermoML archive (doi:10.1021/je060271a).

Details: 323.15 K, Liquid, Vibrating tube method

CCCCCCC(=O)OCC(COC(=O)CCCCCC)(COC(=O)CCCCCC)COC(=O)CCCCCC [pentaerythritol tetraheptanoate]
Details | mass density [kg/m3]
16867 kPa | 966.6
16877 kPa | 966.8
16890 kPa | 966.9
16900 kPa | 966.7
16913 kPa | 966.7
17014 kPa | 966.8
17028 kPa | 966.8
17038 kPa | 966.9
17049 kPa | 967
17062 kPa | 966.9
17072 kPa | 966.9
17084 kPa | 966.9
17095 kPa | 966.8
17108 kPa | 966.8
17119 kPa | 967
17131 kPa | 966.9
17142 kPa | 967
17153 kPa | 966.9
17164 kPa | 967
17177 kPa | 967
17188 kPa | 966.9
17201 kPa | 966.9
17212 kPa | 967
17247 kPa | 967
17258 kPa | 966.9
17269 kPa | 967
17282 kPa | 967
17293 kPa | 967
17307 kPa | 967.1
17318 kPa | 967
17389 kPa | 967
17412 kPa | 967.1
17426 kPa | 967
17437 kPa | 967.2
17451 kPa | 967.1
17462 kPa | 967.1
17474 kPa | 967.2
17485 kPa | 967.2
17499 kPa | 967.2
17511 kPa | 967
17536 kPa | 967.2
17548 kPa | 967.2
17559 kPa | 967.3
17573 kPa | 967.2
17584 kPa | 967.3
17596 kPa | 967.2
17610 kPa | 967.2
17621 kPa | 967.1
17633 kPa | 967.2
17647 kPa | 967.2
17746 kPa | 967.4
17760 kPa | 967.3
17772 kPa | 967.3
17810 kPa | 967.3
17822 kPa | 967.2
17836 kPa | 967.4
17848 kPa | 967.3
17861 kPa | 967.3
17873 kPa | 967.3
17899 kPa | 967.4
17962 kPa | 967.4
17976 kPa | 967.5
17989 kPa | 967.4
18016 kPa | 967.4
18029 kPa | 967.5
18041 kPa | 967.5
18053 kPa | 967.5
18066 kPa | 967.5
18080 kPa | 967.5
18092 kPa | 967.4
18107 kPa | 967.5
18119 kPa | 967.5
18132 kPa | 967.6
18146 kPa | 967.5
18159 kPa | 967.5
18186 kPa | 967.6
18524 kPa | 967.9
18537 kPa | 967.8
18550 kPa | 967.9
18565 kPa | 967.6
18579 kPa | 967.8
18594 kPa | 967.7
18608 kPa | 967.8
18621 kPa | 967.8
18634 kPa | 967.9
18650 kPa | 967.8
18663 kPa | 967.8
18676 kPa | 967.8
18692 kPa | 967.9
18704 kPa | 967.9
18721 kPa | 967.9
18734 kPa | 967.9
18747 kPa | 967.9
18761 kPa | 967.9
18777 kPa | 967.8
18790 kPa | 968
18803 kPa | 968
18820 kPa | 968
18833 kPa | 967.9
18848 kPa | 968
18862 kPa | 968
18876 kPa | 968
18889 kPa | 968.1
18906 kPa | 968
18950 kPa | 968
18977 kPa | 968.1
18993 kPa | 967.9
19007 kPa | 968.1
19021 kPa | 968.1
19037 kPa | 968.1
19051 kPa | 968.2
19064 kPa | 968.1
19081 kPa | 968
19096 kPa | 968.1
19124 kPa | 968
19140 kPa | 968.1
19154 kPa | 968.1
19168 kPa | 968.1
19182 kPa | 968.1
19199 kPa | 968.2
19213 kPa | 968.2
19228 kPa | 968.1
19245 kPa | 968.2
19259 kPa | 968.2
19273 kPa | 968.3
19289 kPa | 968.3
19303 kPa | 968.3
19320 kPa | 968.2
19334 kPa | 968.3
19351 kPa | 968.3
19366 kPa | 968.3
19380 kPa | 968.2
19394 kPa | 968.4
19411 kPa | 968.4
19425 kPa | 968.4
19440 kPa | 968.3
19457 kPa | 968.3
19472 kPa | 968.4
19489 kPa | 968.3
19503 kPa | 968.3
19564 kPa | 968.3
19579 kPa | 968.3
19597 kPa | 968.4
19611 kPa | 968.4
19629 kPa | 968.5
19644 kPa | 968.5
19659 kPa | 968.5
19674 kPa | 968.5
19688 kPa | 968.5
19706 kPa | 968.5
19721 kPa | 968.5
19738 kPa | 968.5
19754 kPa | 968.6
19769 kPa | 968.5
19787 kPa | 968.5
19802 kPa | 968.5
19816 kPa | 968.5
19834 kPa | 968.5
19850 kPa | 968.5
19864 kPa | 968.6
19882 kPa | 968.7
19898 kPa | 968.5
19913 kPa | 968.7
19928 kPa | 968.6
19947 kPa | 968.6
19977 kPa | 968.5
19995 kPa | 968.5
20026 kPa | 968.6
20044 kPa | 968.7
20059 kPa | 968.7
20075 kPa | 968.6
20094 kPa | 968.8
20109 kPa | 968.7
20125 kPa | 968.8
20141 kPa | 968.8
20159 kPa | 968.8
20175 kPa | 968.9
20193 kPa | 968.8
20209 kPa | 968.9
20224 kPa | 968.8
20240 kPa | 968.9
20258 kPa | 969
20274 kPa | 968.8
20293 kPa | 968.9
20309 kPa | 968.8
20325 kPa | 968.8
20344 kPa | 968.9
20359 kPa | 968.9
20375 kPa | 968.9
20390 kPa | 968.9
20410 kPa | 968.9
20426 kPa | 969
20444 kPa | 969
20460 kPa | 969
20476 kPa | 968.9
20496 kPa | 969
20512 kPa | 969
20528 kPa | 969
20544 kPa | 969
20564 kPa | 969.1
20580 kPa | 969
20596 kPa | 969
20631 kPa | 969.1
20648 kPa | 969
20667 kPa | 969.1
20684 kPa | 969.2
20700 kPa | 969.1
20720 kPa | 969.2
20737 kPa | 969.1
20755 kPa | 969.2
20771 kPa | 969.1
20791 kPa | 969.2
20808 kPa | 969.1
20824 kPa | 969.2
20841 kPa | 969.2
20861 kPa | 969.3
20877 kPa | 969.3
20894 kPa | 969.3
20914 kPa | 969.2
20931 kPa | 969.3
20985 kPa | 969.2
21022 kPa | 969.1
21039 kPa | 969.4
